The molecules below were run against T1, PI3K alpha (Homo sapiens, UniProt P42336) (assay: P110 Alpha TR-FRET Assay (PI3K alpha kinase assay, HTRF Transcreener ADP Assay)). Conditions: PI3K (WT).
T1 construct: purchased Millipore Upstate
T1 sequence (P42336 whole entry): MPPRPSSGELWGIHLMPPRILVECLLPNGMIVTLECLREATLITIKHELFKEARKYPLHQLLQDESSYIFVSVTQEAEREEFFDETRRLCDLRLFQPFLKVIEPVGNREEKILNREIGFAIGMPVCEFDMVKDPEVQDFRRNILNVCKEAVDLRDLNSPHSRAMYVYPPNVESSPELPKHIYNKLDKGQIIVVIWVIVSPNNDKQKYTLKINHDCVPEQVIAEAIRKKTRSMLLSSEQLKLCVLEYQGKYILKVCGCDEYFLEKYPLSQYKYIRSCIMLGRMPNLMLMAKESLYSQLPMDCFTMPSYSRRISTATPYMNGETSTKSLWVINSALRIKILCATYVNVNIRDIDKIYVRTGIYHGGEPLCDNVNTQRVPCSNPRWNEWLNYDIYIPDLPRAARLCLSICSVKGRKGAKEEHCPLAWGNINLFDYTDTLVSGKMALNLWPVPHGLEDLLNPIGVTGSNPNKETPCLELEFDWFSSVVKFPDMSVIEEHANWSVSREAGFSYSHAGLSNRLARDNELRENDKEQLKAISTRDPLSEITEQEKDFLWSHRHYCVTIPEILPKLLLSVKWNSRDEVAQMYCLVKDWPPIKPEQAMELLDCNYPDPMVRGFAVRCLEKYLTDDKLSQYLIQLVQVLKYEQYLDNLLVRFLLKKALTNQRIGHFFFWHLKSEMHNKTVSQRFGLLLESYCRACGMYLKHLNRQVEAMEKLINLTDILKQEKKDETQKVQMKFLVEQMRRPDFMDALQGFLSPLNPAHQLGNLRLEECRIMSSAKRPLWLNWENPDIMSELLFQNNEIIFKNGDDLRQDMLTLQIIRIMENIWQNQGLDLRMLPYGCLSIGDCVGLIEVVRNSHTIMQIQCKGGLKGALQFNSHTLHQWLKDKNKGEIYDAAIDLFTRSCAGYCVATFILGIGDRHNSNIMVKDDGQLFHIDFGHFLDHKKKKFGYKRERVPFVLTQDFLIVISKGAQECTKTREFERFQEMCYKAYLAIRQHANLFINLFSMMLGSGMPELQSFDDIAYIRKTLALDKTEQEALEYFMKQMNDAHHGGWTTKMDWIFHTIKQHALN
T1 sequence (P27986 whole entry partner): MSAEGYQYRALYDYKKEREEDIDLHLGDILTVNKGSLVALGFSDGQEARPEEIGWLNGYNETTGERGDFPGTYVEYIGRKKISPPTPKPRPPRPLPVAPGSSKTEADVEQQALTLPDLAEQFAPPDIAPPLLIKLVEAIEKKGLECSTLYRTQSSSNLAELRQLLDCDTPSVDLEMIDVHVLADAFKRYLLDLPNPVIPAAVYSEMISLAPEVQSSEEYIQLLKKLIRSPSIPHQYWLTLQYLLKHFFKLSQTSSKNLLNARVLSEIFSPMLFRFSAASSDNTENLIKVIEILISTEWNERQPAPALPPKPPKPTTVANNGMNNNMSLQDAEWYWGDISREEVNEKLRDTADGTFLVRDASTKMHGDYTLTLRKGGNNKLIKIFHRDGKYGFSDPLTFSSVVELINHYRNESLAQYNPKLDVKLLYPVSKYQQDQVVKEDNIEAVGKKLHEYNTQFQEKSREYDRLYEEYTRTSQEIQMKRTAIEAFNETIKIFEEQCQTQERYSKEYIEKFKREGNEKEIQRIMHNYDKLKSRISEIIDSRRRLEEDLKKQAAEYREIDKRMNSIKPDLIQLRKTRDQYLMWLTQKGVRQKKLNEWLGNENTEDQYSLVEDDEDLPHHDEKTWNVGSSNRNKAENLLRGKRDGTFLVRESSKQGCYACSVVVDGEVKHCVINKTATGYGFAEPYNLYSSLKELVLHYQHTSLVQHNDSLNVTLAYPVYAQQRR
Assay type: biochemical
Summary of the method: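 Enzyme (50 ng) and compound were preincubated 20 min in HEPES pH 7.5 buffer containing MgCl2, DTT and vanadate before 10 μM ATP plus 5 μM PIP2 substrate was added for 20 min. ADP produced was quantified by TR-FRET (ADP-d2, anti-ADP cryptate, 1 h).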
For c1ccc(Nc2nc(-c3cccc4[nH]ncc34)nc(N3CCOCC3)n2)cc1 [Compound 1219, 4-(1H-indazol-4-yl)-6-morpholino-N-phenyl-1,3,5-triazin-2-amine], the IC50 was < 5 µM. With CN(C)C(=O)[C@H]1CC[C@@H](Nc2nc(-c3cccc4[nH]ncc34)nc(N3CCOCC3)n2)CC1 [Compound 1216, 4-((4-(1H-indazol-4-yl)-6-morpholino-1,3,5-triazin-2-yl)amino)-N,N-dimethylcyclohexanecarboxamide] the IC50 was < 5 µM. For CN(C)C(=O)c1ccc(Oc2nc(-c3cccc4[nH]ncc34)nc(N3CCNC(=O)C3)n2)cc1 [Compound 1059, 4-7-{[4-5-(1H-indazol-4-yl)-6-3-(3-29-oxopiperazin-1-yl)-1,3,5-triazin-2-yl]oxy}-N,N-dimethylbenzamide], the IC50 was > 5 µM. With c1cc(-c2nc(NC3CCOCC3)nc(N3CCOCC3)n2)c2cn[nH]c2c1 [Compound 1225, 4-(1H-indazol-4-yl)-6-morpholino-N-(tetrahydro-2H-pyran-4-yl)-1,3,5-triazin-2-amine] the IC50 was < 5 µM. For NC(=O)Cc1ccccc1Nc1nc(-c2cccc3[nH]ncc23)nc(N2CCOCC2)n1 [Compound 1194, 2-(2-((4-(1H-indazol-4-yl)-6-morpholino-1,3,5-triazin-2-yl)amino)phenyl)acetamide], the IC50 was < 5 µM. With N#Cc1cccc(Oc2nc(-c3cccc4[nH]ncc34)nc(N3CCOCC3)n2)c1 [Compound 1131, 3-22-{[4-1-(1H-indazol-4-yl)-6-5-(morpholin-4-yl)-1,3,5-triazin-2-yl]oxy}benzonitrile] the IC50 was > 5 µM. In the case of CN(C)C(=O)c1ccc(Oc2nc(-c3cccc4[nH]ncc34)nc(N3CCOCC3)n2)nc1 [Compound 1072, 6-14-{[4-1-(1H-indazol-4-yl)-6-5-(morpholin-4-yl)-1,3,5-triazin-2-yl]oxy}-N,N-dimethylpyridine-3-carboxamide], the IC50 is reported as > 5 µM. In the case of O=C(O)CNc1nc(-c2ccccc2)nc(N2CCOCC2)n1 [Compound 1203, 2-((4-morpholino-6-phenyl-1,3,5-triazin-2-yl)amino)acetic acid], the IC50 is reported as > 5 µM. With CNC(=O)N1CCN(c2nc(-c3cccc4[nH]ncc34)nc(N3CCOCC3)n2)CC1 [Compound 1218, 4-7-[4-1-(1H-indazol-4-yl)-6-5-(morpholin-4-yl)-1,3,5-triazin-2-yl]-N-methylpiperazine-1-carboxamide] the IC50 was < 5 µM. O=C(O)CNc1nc(-c2cccc([N+](=O)[O-])c2)nc(N2CCOCC2)n1 [Compound 1169, 2-((4-morpholino-6-(3-nitrophenyl)-1,3,5-triazin-2-yl)amino)acetic acid] was tested, and the IC50 was > 5 µM. With CS(=O)(=O)N1CCN(C(=O)CNc2nc(-c3ccc(O)nc3)nc(N3CCOCC3)n2)CC1 [Compound 1074, 2-((4-(6-hydroxypyridin-3-yl)-6-morpholino-1,3,5-triazin-2-yl)amino)-1-(4-(methylsulfonyl)piperazin-1-yl)ethanone] the IC50 was < 5 µM. CN(C)C(=O)[C@H]1C[C@H](Oc2nc(-c3cccc4[nH]ncc34)nc(N3CCOCC3)n2)CN1C [Compound 1099, (2R,4S)-4-14-{[4-1-(1H-indazol-4-yl)-6-5-(morpholin-4-yl)-1,3,5-triazin-2-yl]oxy}-N,N,1-trimethylpyrrolidine-2-carboxamide] was tested, and the IC50 was < 5 µM. In the case of CN(C)C(=O)c1ccc(Oc2nc(-c3cncc(N)c3)nc(N3CCOCC3)n2)cc1 [Compound 1032, 4-14-{[4-1-(5-26-aminopyridin-3-yl)-6-5-(morpholin-4-yl)-1,3,5-triazin-2-yl]oxy}-N,N-dimethylbenzamide], the IC50 is reported as < 5 µM. With CN(C)C(=O)C(=O)Nc1ccc(Oc2nc(-c3cccc4[nH]ncc34)nc(N3CCOCC3)n2)cc1 [Compound 1101, N-(4-14-{[4-1-(1H-indazol-4-yl)-6-5-(morpholin-4-yl)-1,3,5-triazin-2-yl]oxy}phenyl)-N′,N′-dimethylethanediamide] the IC50 was < 5 µM. With CN(C)C(=O)c1ccc(Oc2nc(-c3cccc4[nH]ncc34)nc(N3C4CCC3COC4)n2)cc1 [Compound 1068, 4-9-{[4-1-(1H-indazol-4-yl)-6-5-{3-oxa-8-azabicyclo[3.2.1]octan-8-yl}-1,3,5-triazin-2-yl]oxy}-N,N-dimethylbenzamide] the IC50 was > 5 µM. For CNC(=O)C(=O)Nc1ccc(Oc2nc(-c3cccc4[nH]ncc34)nc(N3CCOCC3)n2)cc1 [Compound 1100, N-(4-14-{[4-1-(1H-indazol-4-yl)-6-5-(morpholin-4-yl)-1,3,5-triazin-2-yl]oxy}phenyl)-N′-methylethanediamide], the IC50 was < 5 µM. In the case of CS(=O)(=O)N1CCN(C(=O)CNc2nc(-c3ccc(F)nc3)nc(N3CCOCC3)n2)CC1 [Compound 1080, 2-((4-(6-fluoropyridin-3-yl)-6-morpholino-1,3,5-triazin-2-yl)amino)-1-(4-(methylsulfonyl)piperazin-1-yl)ethanone], the IC50 is reported as > 5 µM. For CN(C)C(=O)N1CCN(Cc2nc(-c3cccc4[nH]ncc34)nc(N3CCOCC3)n2)CC1 [Compound 1180, 4-((4-(1H-1-indazol-4-yl)-6-morpholino-1,3,5-triazin-2-yl)methyl)-N,N-dimethylpiperazine-1-carboxamide], the IC50 was < 5 µM. With CN(C)C(=O)c1ccc(Oc2nc(-c3cnc(N)nc3)nc(N3CCOCC3)n2)cc1 [Compound 1011, 4-14-{[4-1-(2-27-aminopyrimidin-5-yl)-6-5-(morpholin-4-yl)-1,3,5-triazin-2-yl]oxy}-N,N-dimethylbenzamide] the IC50 was < 5 µM. With CN(C)C(=O)c1ccc(Oc2nc(-c3cccc4[nH]ncc34)nc(N3CCOCC3)n2)cc1 [Compound 1114, 4-14-{[4-1-(1H-indazol-4-yl)-6-5-(morpholin-4-yl)-1,3,5-triazin-2-yl]oxy}-N,N-dimethylbenzamide] the IC50 was < 5 µM. For CN(C)C(=O)C(CCS(C)(=O)=O)Nc1nc(-c2cccc3[nH]ncc23)nc(N2CCOCC2)n1 (stereo not drawn) [Compound 1210, 2-((4-(1H-indazol-4-yl)-6-morpholino-1,3,5-triazin-2-yl)amino)-N,N-dimethyl-4-(methylsulfonyl)butanamide], the IC50 was < 5 µM. CN(C)C(=O)[C@H]1CC[C@H](Oc2nc(-c3ccc(N)nc3)nc(N3CCOCC3)n2)CC1 [Compound 1035, (1r,4r)-4-9-{[4-1-(6-12-aminopyridin-3-yl)-6-5-(morpholin-4-yl)-1,3,5-triazin-2-yl]oxy}-N,N-dimethylcyclohexane-1-carboxamide] was tested, and the IC50 was < 5 µM. With CN(C)C(=O)c1ccc(COc2nc(-c3cccc4[nH]ncc34)nc(N3CCOCC3)n2)cc1 [Compound 1110, 4-23-({[4-1-(1H-indazol-4-yl)-6-5-(morpholin-4-yl)-1,3,5-triazin-2-yl]oxy}methyl)-N,N-dimethylbenzamide] the IC50 was < 5 µM. With Nc1ncc(-c2nc(N3CCOCC3)nc(N3CCOCC3)n2)s1 [Compound 1042, 5-7-[4-3,6-5-bis(morpholin-4-yl)-1,3,5-triazin-2-yl]-1,3-thiazol-2-amine] the IC50 was < 5 µM. For O=C(c1cccc(Nc2nc(-c3cccc4[nH]ncc34)nc(N3CCOCC3)n2)c1)N1CCOCC1 [Compound 1173, (3-((4-(1H-indazol-4-yl)-6-morpholino-1,3,5-triazin-2-yl)amino)phenyl)(morpholino)methanone], the IC50 was < 5 µM. With CS(=O)(=O)N1CCN(C(=O)c2cccc(Nc3nc(-c4cccc5[nH]ncc45)nc(N4CCOCC4)n3)c2)CC1 [Compound 1130, (3-((4-(1H-indazol-4-yl)-6-morpholino-1,3,5-triazin-2-yl)amino)phenyl)(4-(methylsulfonyl)piperazin-1-yl)methanone] the IC50 was < 5 µM. For CN(C)C(=O)N1CCC(COc2nc(-c3cccc4[nH]ncc34)nc(N3CCOCC3)n2)C1 (stereo not drawn) [Compound 1109, 3-22-({[4-1-(1H-indazol-4-yl)-6-5-(morpholin-4-yl)-1,3,5-triazin-2-yl]oxy}methyl)-N,N-dimethylpyrrolidine-1-carboxamide], the IC50 was < 5 µM. With CN(C)C(=O)c1ccc(Oc2nc(-c3cccc4[nH]ncc34)nc(N3CCNC(=O)CC3)n2)cc1 [Compound 1038, 4-7-{[4-5-(1H-indazol-4-yl)-6-3-(5-31-oxo-1,4-diazepan-1-yl)-1,3,5-triazin-2-yl]oxy}-N,N-dimethylbenzamide] the IC50 was > 5 µM. For O=C(O)CNc1nc(-c2cccc3[nH]ncc23)nc(N2CCOCC2)n1 [Compound 1236, 2-((4-(1H-indazol-4-yl)-6-morpholino-1,3,5-triazin-2-yl)amino)acetic acid], the IC50 was < 5 µM. Cc1nc(N2CCOCC2)nc(N2CCOCC2)n1 [Compound 1045, 2-1-methyl-4-5,6-3-bis(morpholin-4-yl)-1,3,5-triazine] was tested, and the IC50 was > 5 µM. For NC(=O)C(Cc1ccccc1)Nc1nc(-c2cccc(O)c2)nc(N2CCOCC2)n1 (stereo not drawn) [Compound 1090, 2-((4-(3-hydroxyphenyl)-6-morpholino-1,3,5-triazin-2-yl)amino)-3-phenylpropanamide], the IC50 was < 5 µM. For CC(Nc1nc(-c2cccc(O)c2)nc(N2CCOCC2)n1)C(=O)O (stereo not drawn) [Compound 1187, 2-((4-(3-hydroxyphenyl)-6-morpholino-1,3,5-triazin-2-yl)amino)propanoic acid], the IC50 was < 5 µM. With NC(=O)c1ccccc1Nc1nc(-c2cccc3[nH]ncc23)nc(N2CCOCC2)n1 [Compound 1198, 2-((4-(1H-indazol-4-yl)-6-morpholino-1,3,5-triazin-2-yl)amino)benzamide] the IC50 was > 5 µM. In the case of NC(=O)CNc1nc(-c2cccc(C(N)=O)c2)nc(N2CCOCC2)n1 [Compound 1135, 3-6-{4-1-[(carbamoylmethyl)amino]-6-2-(morpholin-4-yl)-1,3,5-triazin-2-yl}benzamide], the IC50 is reported as > 5 µM. For CN(C)C(=O)c1cccc(Oc2nc(-c3ccc(N)nc3)nc(N3CCOCC3)n2)c1 [Compound 1015, 3-20-{[4-1-(6-11-aminopyridin-3-yl)-6-5-(morpholin-4-yl)-1,3,5-triazin-2-yl]oxy}-N,N-dimethylbenzamide], the IC50 was < 5 µM. CN(C)C(=O)NC1CCN(c2nc(-c3ccc(N)nc3)nc(N3CCOCC3)n2)CC1 [Compound 1069, 1-{1-7-[4-3-(6-16-aminopyridin-3-yl)-6-5-(morpholin-4-yl)-1,3,5-triazin-2-yl]piperidin-4-yl}-3,3-dimethylurea] was tested, and the IC50 was < 5 µM.
